From patent US20140011799A1 (Bristol-Myers Squibb Company, priority 2012, published 2014)
pIC50: −log10 of the molar value.

Target: T1, Endothelial lipase (EL) (Homo sapiens, UniProt Q9Y5X9)
T1 construct: HT-1080 cells that were transformed using RAGE technology (Athersys) to overexpress endogenous EL; endogenous in cells; conditioned medium used
T1 sequence (Q9Y5X9 21-500): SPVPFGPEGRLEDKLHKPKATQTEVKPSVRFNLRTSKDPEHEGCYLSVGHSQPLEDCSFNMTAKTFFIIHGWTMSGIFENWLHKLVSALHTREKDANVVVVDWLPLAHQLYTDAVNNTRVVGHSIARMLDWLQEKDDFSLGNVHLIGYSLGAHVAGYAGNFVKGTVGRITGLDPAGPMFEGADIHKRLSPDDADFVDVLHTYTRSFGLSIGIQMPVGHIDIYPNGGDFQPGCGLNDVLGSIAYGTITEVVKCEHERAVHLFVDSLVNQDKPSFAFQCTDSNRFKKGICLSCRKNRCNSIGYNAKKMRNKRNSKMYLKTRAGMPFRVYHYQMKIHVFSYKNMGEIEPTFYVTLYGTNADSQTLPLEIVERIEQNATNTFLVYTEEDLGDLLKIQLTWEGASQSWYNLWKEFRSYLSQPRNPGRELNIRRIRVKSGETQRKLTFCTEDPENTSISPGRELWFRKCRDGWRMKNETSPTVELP
Test: Endothelial lipase (EL) enzymatic assay, fluorescent substrate A10070 in DMPG vesicles
Format: biochemical
Conditions: EL from conditioned media of HT-1080 cells; compound preincubated 30 min at 37° C; read-out: EL IC50
Description: Endothelial lipase (EL) and hepatic lipase (HL) activities were measured using a fluorescent substrate, A10070, (Invitrogen, CA) doped into an artificial vesicle containing DMPG (Avanti Polar Lipids) as the excipient. Vesicles were prepared by combining 571 μL of 29 mM DMPG in a 1:1 mixture of MeOH and CHCl3 with 2000 μL of 1 mM A10070 in a 1:1 mixture of MeOH and CHCl3. The mixture was dried under nitrogen in multiple vials then resuspended in 20 mL total volume of 50 mM HEPES pH 8.0 buffer containing 50 mM NaCl and 0.2 mM EDTA. The sample was allowed to sit at room temperature for 15 min and then was sonicated 3×4 mins on ice with a Branson Sonicator using duty cycle 1. This preparation provides vesicles with a mole fraction of 0.11 for the FRET substrate.
The enzymatic assay was measured using 384-well white Optiplates. Each well contained 20 μL of assay buffer (50 mM HEPES pH 8.0, 50 mM NaCl and 1 mM CaCl2) and 0.25 μL of a DMSO solution containing a compound of interest. EL or HL (10 μL) was added and allowed to incubate with the compound for 30 min at 37° C. The source of EL was conditioned media obtained from HT-1080 cells that were transformed using RAGE technology (Athersys) to overexpress endogenous EL, and HL was partially purified from conditioned media obtained from COS cells overexpressing HL. The reaction was started by the addition of 10 μL of a 1:10 dilution of vesicles. The final total reaction volume was […]. The reaction rates were measured on a Gemini plate reader with an excitation wavelength of 490 nm and an emission wavelength of 530 nm. Readings were taken over a period of 60 minutes, and the slope between 300 and 900 secs of the readout was used to calculate the rate of the reaction.

Compound	pIC50
NS(=O)(=O)Cc1nnc(C(c2nc3c(F)cc(-c4ccccc4)cc3s2)S(=O)(=O)Cc2ccc(C(F)(F)F)cc2)o1 (centres unmarked) [Example 90, (5-((4-Fluoro-6-phenylbenzo[d]thiazol-2-yl)((4-(trifluoromethyl)benzyl)sulfonyl)methyl)-1,3,4-oxadiazol-2-yl)methanesulfonamide]	> 8.00
CC1(Cc2nnc(C(c3nc4ccc(-c5ccnc(F)c5)cc4s3)S(C)(=O)=O)o2)NC(=O)NC1=O (single isomer, unassigned; isomer a) [Example 13, 5-((5-((6-(2-fluoropyridin-4-yl)benzo[d]thiazol-2-yl)(methylsulfonyl)methyl)-1,3,4-oxadiazol-2-yl)methyl)-5-methylimidazolidine-2,4-dione (Isomer A)]	> 8.00
O=C(OCc1ccccc1)N1CCC(S(=O)(=O)C(c2nnc(CS(=O)(=O)O)o2)c2nc3ccc(-c4ccccc4)cc3s2)CC1 (centres unmarked) [Example 32, (5-(((1-((benzyloxy)carbonyl)-4-piperidinyl)sulfonyl)(6-phenyl-1,3-benzothiazol-2-yl)methyl)-1,3,4-oxadiazol-2-yl)methanesulfonic acid]	> 8.00
Cc1noc(C)c1-c1ccc2nc(C(c3nnc(CC4SC(=O)NC4=O)o3)S(C)(=O)=O)sc2c1 (centres unmarked) [Example 19, 5-((5-((6-(3,5-dimethylisoxazol-4-yl)benzo[d]thiazol-2-yl)(methylsulfonyl)methyl)-1,3,4-oxadiazol-2-yl)methyl) thiazolidine-2,4-dione]	> 8.00
NS(=O)(=O)NCc1nnc(C(c2nc3ccc(-c4ccccc4)cc3s2)S(=O)(=O)Cc2cc(Cl)cc(Cl)c2)o1 (centres unmarked) [Example 59, N-((5-(((3,5-dichlorobenzyl)sulfonyl)(6-phenyl-1,3-benzothiazol-2-yl)methyl)-1,3,4-oxadiazol-2-yl)methyl)sulfamide]	> 8.00
NS(=O)(=O)Cc1nnc(C(c2nc3ccc(-c4ccccc4)cc3s2)S(=O)(=O)Cc2ccccc2)o1 (centres unmarked) [Example 37, (5-((benzylsulfonyl)(6-phenylbenzo[d]thiazol-2-yl)methyl)-1,3,4-oxadiazol-2-yl)methanesulfonamide]	> 8.00
NS(=O)(=O)NCc1nnc(C(c2nc3ccc(-c4ccccc4)cc3s2)S(=O)(=O)CC2CC2)o1 (centres unmarked) [Example 61, N-[(5-{6-phenyl-1,3-benzothiazol-2-yl [(cyclopropylmethyl)sulfonyl]methyl}-1,3,4-oxadiazol-2-yl)methyl]sulfuric diamide]	> 8.00
O=S(=O)(O)Cc1nnc(C(c2nc3ccc(-c4ccc(OCc5ccccc5)cc4)cc3s2)S(=O)(=O)CCC(F)(F)F)o1 (centres unmarked) [Example 11, (5-((6-(4-(benzyloxy)phenyl)benzo[d]thiazol-2-yl)((3,3,3-trifluoropropyl)sulfonyl)methyl)-1,3,4-oxadiazol-2-yl)methanesulfonic acid]	< 8.00
CS(=O)(=O)C(c1nnc(CC2SC(=O)NC2=O)o1)c1nc2ccc(-c3ccc(C(=O)N4CCOCC4)cc3)cc2s1 (centres unmarked) [Example 2, 5-((5-((methylsulfonyl)(6-(4-(4-morpholinylcarbonyl)phenyl)-1,3-benzothiazol-2-yl)methyl)-1,3,4-oxadiazol-2-yl)methyl)-1,3-thiazolidine-2,4-dione]	> 8.00
NS(=O)(=O)NCc1nnc(C(c2nc3ccc(-c4ccc(F)nc4)cc3s2)S(=O)(=O)Cc2ccccc2)o1 (centres unmarked) [Example 75, N-((5-((benzylsulfonyl) (6-(6-fluoro-3-pyridinyl)-1,3-benzothiazol-2-yl)methyl)-1,3,4-oxadiazol-2-yl)methyl)sulfamide]	> 8.00
NS(=O)(=O)NCc1nnc(C(c2nc3ccc(-c4ccccc4)cc3s2)S(=O)(=O)C2CCOCC2)o1 (centres unmarked) [Example 53, N-({5-[6-phenyl-1,3-benzothiazol-2-yl (tetrahydro-2H-pyran-4-ylsulfonyl)methyl]-1,3,4-oxadiazol-2-yl}methyl) sulfuric diamide]	> 8.00
NS(=O)(=O)NCc1nnc(C(c2nc3ccc(-c4ccccc4)cc3s2)S(=O)(=O)Cc2ccc(C(F)(F)F)cc2)o1 (centres unmarked) [Example 48, N-((5-((6-phenyl-1,3-benzothiazol-2-yl)((4-(trifluoromethyl)benzyl)sulfonyl)methyl)-1,3,4-oxadiazol-2-yl)methyl)sulfamide]	> 8.00
NS(=O)(=O)NCc1nnc(C(c2nc3ccc(-c4ccccc4)cc3s2)S(=O)(=O)Cc2ccc(Cl)cc2)o1 (centres unmarked) [Example 58, N-((5-(((4-chlorobenzyl)sulfonyl)(6-phenyl-1,3-benzothiazol-2-yl)methyl)-1,3,4-oxadiazol-2-yl)methyl)sulfamide]	> 8.00
CC1(Cc2nnc(C(c3nc4ccc(-c5ccccc5)cc4s3)S(C)(=O)=O)o2)NC(=O)N(CC(F)(F)F)C1=O (single isomer, unassigned; isomer a) [Example 27, 5-methyl-5-((5-(methylsulfonyl(6-phenylbenzo[d]thiazol-2-yl)methyl)-1,3,4-oxadiazol-2-yl)methyl)-3-(2,2,2-trifluoroethyl)imidazolidine-2,4-dione (Isomer A)]	> 8.00
CC1(Cc2nnc(C(c3nc4ccc(-c5ccc(F)nc5)cc4s3)S(C)(=O)=O)o2)SC(=O)NC1=O (single isomer, unassigned; isomer a) [Example 17, 5-((5-((6-(6-fluoropyridin-3-yl)benzo[d]thiazol-2-yl)(methylsulfonyl)methyl)-1,3,4-oxadiazol-2-yl)methyl)-5-methylthiazolidine-2,4-dione (Isomer A)]	> 8.00
CN(C)C(=O)CCc1nnc(C(c2nc3ccc(-c4ccccc4)cc3s2)S(=O)(=O)Cc2ccccc2)o1 (centres unmarked) [Example 41, 3-(5-((benzylsulfonyl)(6-phenylbenzo[d]thiazol-2-yl)methyl)-1,3,4-oxadiazol-2-yl)-N,N-dimethylpropanamide]	7.24
NS(=O)(=O)NCc1nnc(C(c2nc3ccc(-c4ccccc4)cc3s2)S(=O)(=O)Cc2ccccc2F)o1 (centres unmarked) [Example 51, N-((5-(((2-fluorobenzyl)sulfonyl)(6-phenyl-1,3-benzothiazol-2-yl)methyl)-1,3,4-oxadiazol-2-yl)methyl)sulfamide]	> 8.00
Cc1nn(C)cc1-c1ccc2nc(C(c3nnc(CC4SC(=O)NC4=O)o3)S(C)(=O)=O)sc2c1 (centres unmarked) [Example 20, 5-((5-((6-(1,3-dimethyl-1H-pyrazol-4-yl)benzo[d]thiazol-2-yl)(methylsulfonyl)methyl)-1,3,4-oxadiazol-2-yl)methyl) thiazolidine-2,4-dione]	> 8.00
NS(=O)(=O)NCc1nnc(C(c2nc3ccc(-c4ccccc4)cc3s2)S(=O)(=O)Cc2cc(C(F)(F)F)cc(C(F)(F)F)c2)o1 (centres unmarked) [Example 72, N-((5-(((3,5-bis (trifluoromethyl)benzyl)sulfonyl) (6-phenyl-1,3-benzothiazol-2-yl)methyl)-1,3,4-oxadiazol-2-yl)methyl)sulfamide]	> 8.00
CC1(Cc2nnc(C(c3nc4ccc(-c5ccc(F)nc5)cc4s3)S(=O)(=O)Cc3ccccc3)o2)SC(=O)NC1=O (single isomer, unassigned; isomer a) [Example 1, 5-((5-((Benzylsulfonyl)(6-(6-fluoropyridin-3-yl)benzo[d]thiazol-2-yl)methyl)-1,3,4-oxadiazol-2-yl)methyl)-5-methylthiazolidine-2,4-dione (Isomer A)]	> 8.00
